In ChEMBL document CHEMBL1201862, “PubChem BioAssay data set” (2004):
Active and inactive are the calls of the source. For most assays here, no stated cut-off is given here; in the data, actives have a measured EC50 and inactives only a lower limit.

Experiments:
[1] = Luminescence Cell-Based Dose Confirmation HTS to Identify Activators of 5'UTR Stem-Loop Driven Alpha-Synuclein mRNA Translation in H4 Neuroglioblastoma Cells. [Related pubchem assays: 1829 (Project Summary), 1814 (Primary HTS)]; type: functional
[2] = Luminescence Cell-Based Dose Response HTS to Identify Activators of Luciferase Translation or Activity in H4 […] Cells. [Related pubchem assays: 1829 (Project Summary), 1814 (Primary HTS)]; type: functional
[3] = cells; type: functional, cell-based
[4] = test system: H4; assay: Luminescence Cell-Based Dose Response HTS to Identify Activators of 5'UTR Stem-Loop Driven Prion Protein mRNA Translation in H4 Neuroglioblastoma Cells. [Related pubchem assays: 1829 (Project Summary), 1814 (Primary HTS)]; type: functional; settings: Homo sapiens
[5] = cells; type: functional, cell-based; remark: listed apart in the source
[6] = luciferase reporter signal suppression in cells – H4 neuroglioma cells, luminescence, dose response (AID 1990); type: functional, cell-based
[7] = Luminescence Cell-Based Dose Response HTS to Identify Inhibitors of 5'UTR Stem-Loop Driven Prion Protein mRNA Translation in H4 Neuroglioblastoma Cells. [Related pubchem assays: 1827 (Project Summary), 1813 (Primary HTS)]; type: functional
[8] = alpha-synuclein stem-loop luciferase translation blockers – H4 neuroglioma cells, luminescence, confirmation (AID 1988); type: functional, cell-based
[9] = target: Paired box protein Pax-8 (Homo sapiens, UniProt Q06710); assay: PAX8 transcriptional activity inhibition in RMG-I – RMG-I cells, luciferase, cherry-pick, dose response (AID 687027); type: functional, cell-based;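 further: luciferase reporter driven by Pax8 target thyroperoxidase promoter measured by SteadyGlo luminescence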
[10] = test system: Vero; assay: cells; type: functional; settings: Chlorocebus sabaeus
[11] = test system: BJ; assay: BJ-TERT fibroblast viability loss – cell-based, RAS-independent, luminescence, dose response (AID 1933); type: functional; settings: Homo sapiens
[12] = test system: BJ; assay: cells; type: functional, cell-based; settings: Homo sapiens
[13] = test system: BJ; assay: BJ-TERT-LT-ST fibroblast viability loss – cell-based, RAS-independent, luminescence, dose response (AID 1935); type: functional; settings: Homo sapiens;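 further: BJ fibroblasts immortalized with TERT plus LT and ST oncogenes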
[14] = DRD fibroblast viability loss – cell-based, non-viral oncogenic, luminescence, dose response (AID 1934); type: functional; settings: Homo sapiens
[15] = Luminescence Cell-Based Dose Retest to Confirm Inhibitors of Cancer Stem Cells. [Related pubchem assays (depositor defined):AID2717, AID2721]; type: functional; settings: Homo sapiens
[16] = test system: INS1; assay: INS-1E survival protection against cytokine death – cell-based, luminescence, retest, dose response (AID 449756); type: functional; settings: Rattus norvegicus;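 further: cell death triggered by IL-1 beta plus TNF-alpha plus IFN-gamma mixture; protective hits raise ATP signal compared with cytokine alone wells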
[17] = target: Luciferin 4-monooxygenase (Photinus pyralis, UniProt P08659); assay: inhibition of purified Photinus pyralis luciferase – biochemical, luminescence, dose response (AID 1891)
[18] = Luminescence Cell-Based Dose Confirmation HTS to Identify Inhibitors of Platelet Dense Granule Release. [Related pubchem assays: 1663 (Primary HTS), 1678 (Summary of Project)]; type: functional
[19] = reduction of Shn3 3'UTR-driven luciferase in osteoblasts – cell-based, Clone20 osteoblasts, firefly luciferase, cherry-picked, dose response (AID 624132); type: functional;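 further: firefly luciferase luminescence from reporter carrying the Shn3 3'UTR in osteoblasts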
[20] = Trypanosoma cruzi growth suppression in host cells – NIH3T3 host cells, beta-gal luminescence, confirmation (AID 2044); type: functional, cell-based;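 further: intracellular parasites grown in NIH/3T3 mouse fibroblasts as host cells; luminescent beta-galactosidase reporter signal from transgenic T. cruzi replicating inside host cells; inhibitors lower the luminescence signal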
[21] = NIH3T3 cell viability loss – ATP luminescence, mouse fibroblasts, counter-screen, dose response (AID 2010); type: functional, cell-based;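 further: cells exposed to compound for about 90 hours before reading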
[22] = test system: H9c2; assay: cells; type: functional, cell-based; settings: Rattus norvegicus, H9c2, Myocardium;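 further: confirmatory concentration-response retest of ultra-high-throughput screening hits for modulation of myocardial damage; cell death induced by hydrogen peroxide oxidative stress; compound pretreatment for 60 min then peroxide exposure for 2 h; potency is for protecting the cells against peroxide damage rather than for killing them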
[23] = viability of uninfected HEp-2 cells – cell-based, HTS, cytotoxicity control for RSV inhibitor project, dose response (AID 2410); type: functional; settings: human respiratory syncytial virus
[24] = target: T1, Corticotropin-releasing factor receptor 2/Corticotropin-releasing factor-binding protein (Homo sapiens, UniProt P24387+Q13324); assay: Dose Response confirmation of uHTS hits for small molecule antagonists of the CRF-binding protein and CRF-R2 receptor complex.; type: functional; settings: read-out: IC50_Mean
T1 sequence (Q13324 whole entry): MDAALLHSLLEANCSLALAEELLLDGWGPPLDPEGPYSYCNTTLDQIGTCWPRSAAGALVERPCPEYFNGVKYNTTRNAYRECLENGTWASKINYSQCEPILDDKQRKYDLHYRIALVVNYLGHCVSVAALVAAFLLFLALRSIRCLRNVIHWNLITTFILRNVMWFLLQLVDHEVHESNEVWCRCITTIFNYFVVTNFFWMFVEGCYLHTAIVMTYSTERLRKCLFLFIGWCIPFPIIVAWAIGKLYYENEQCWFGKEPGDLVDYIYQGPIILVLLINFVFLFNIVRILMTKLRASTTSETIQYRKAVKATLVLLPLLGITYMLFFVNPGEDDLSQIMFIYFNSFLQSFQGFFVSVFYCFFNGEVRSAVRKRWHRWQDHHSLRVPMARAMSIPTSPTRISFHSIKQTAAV
T1 sequence (P24387 whole entry): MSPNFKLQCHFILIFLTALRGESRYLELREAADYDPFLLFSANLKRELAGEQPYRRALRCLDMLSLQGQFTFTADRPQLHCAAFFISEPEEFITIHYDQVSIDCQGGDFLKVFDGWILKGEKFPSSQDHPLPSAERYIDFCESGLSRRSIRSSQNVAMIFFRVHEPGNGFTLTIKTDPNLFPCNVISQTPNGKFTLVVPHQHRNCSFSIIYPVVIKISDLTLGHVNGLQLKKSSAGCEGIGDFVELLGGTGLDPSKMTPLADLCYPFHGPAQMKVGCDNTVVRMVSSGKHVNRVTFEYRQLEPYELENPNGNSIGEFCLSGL

[25] = target: T1, Corticotropin-releasing factor receptor 2/Corticotropin-releasing factor-binding protein; assay: activators of CRF receptor 2 with binding protein – uHTS hits, confirmation (AID 602473); type: functional; settings: read-out: EC50_Mean

Sequence of Paired box protein Pax-8 (Q06710 whole entry): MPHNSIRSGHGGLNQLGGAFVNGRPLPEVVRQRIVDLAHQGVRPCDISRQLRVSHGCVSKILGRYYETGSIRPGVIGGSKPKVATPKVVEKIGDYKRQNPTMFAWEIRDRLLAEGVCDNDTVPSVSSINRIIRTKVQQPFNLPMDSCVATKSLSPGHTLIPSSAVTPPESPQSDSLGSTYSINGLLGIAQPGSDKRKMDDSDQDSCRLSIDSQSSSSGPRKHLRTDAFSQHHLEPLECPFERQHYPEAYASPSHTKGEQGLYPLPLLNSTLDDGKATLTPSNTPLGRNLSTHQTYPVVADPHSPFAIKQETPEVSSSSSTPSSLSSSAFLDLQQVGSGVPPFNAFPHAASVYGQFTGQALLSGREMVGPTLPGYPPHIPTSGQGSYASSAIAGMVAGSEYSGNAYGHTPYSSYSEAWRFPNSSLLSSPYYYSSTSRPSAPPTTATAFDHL
Sequence of Luciferin 4-monooxygenase (P08659 whole entry): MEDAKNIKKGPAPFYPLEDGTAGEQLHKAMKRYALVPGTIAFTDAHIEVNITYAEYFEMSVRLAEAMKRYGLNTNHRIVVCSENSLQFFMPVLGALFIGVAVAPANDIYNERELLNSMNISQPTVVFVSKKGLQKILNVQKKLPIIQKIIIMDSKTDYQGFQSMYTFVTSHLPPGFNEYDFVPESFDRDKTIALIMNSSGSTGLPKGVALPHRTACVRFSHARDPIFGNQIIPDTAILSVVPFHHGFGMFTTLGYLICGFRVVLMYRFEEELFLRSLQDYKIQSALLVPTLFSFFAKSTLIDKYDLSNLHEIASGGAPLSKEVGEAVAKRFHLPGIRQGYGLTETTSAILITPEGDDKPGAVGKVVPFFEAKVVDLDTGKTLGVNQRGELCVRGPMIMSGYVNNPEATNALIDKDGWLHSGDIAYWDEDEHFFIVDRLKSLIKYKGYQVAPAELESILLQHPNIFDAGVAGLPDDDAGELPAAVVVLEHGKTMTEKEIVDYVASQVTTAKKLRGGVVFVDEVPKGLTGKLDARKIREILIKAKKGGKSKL

In the case of `Cc1cccc(-n2ncc3c(NCc4ccco4)ncnc32)c1`, the EC50 [1] is reported as 4.04 µM (active), the EC50 [2] is reported as 49.1 µM (active) and the EC50 [3] is reported as > 350 µM (not active). The EC50 [4] was 64.9 µM (active) and the EC50 [5] was 88.7 µM (active).
With `Cc1cc(NC(=O)CSc2nnc(C3CC3)n2N)no1` the EC50 [6] was > 120 µM (not active), the EC50 [7] was > 120 µM (not active) and the EC50 [8] was > 120 µM (not active).
In the case of `Cc1onc(-c2ccccc2)c1C(=O)Nc1ccc(S(=O)(=O)N2CCCC2)cc1`, the EC50 [3] is reported as > 350 µM (not active) and the EC50 [5] is reported as > 350 µM (not active).
In the case of `C[C@@H]1CCCCO[C@H](CN(C)S(=O)(=O)c2cccs2)[C@H](C)CN([C@@H](C)CO)C(=O)c2cc(NC(=O)CCC(F)(F)F)ccc2O1`, the AC50 [9] is reported as 27.6 µM (active).
For `O=C(CCCN1C(=O)/C(=C/c2ccccc2OC(F)F)SC1=S)Nc1cccnc1`, the CC50 [10] was 8.53 µM (active) and the AC50 [9] was 7.19 µM (active).
In the case of `COc1cc(-c2cc3nc4ccccc4n3c(N)c2C#N)cc(OC)c1OC`, the EC50 [6] is reported as 17.2 µM (active), the EC50 [7] is reported as 16.4 µM (active) and the EC50 [8] is reported as > 120 µM (not active).
For `COc1ccc(Nc2nc(-c3sc(C)nc3C)cs2)c(OC)c1`, the EC50 [11] was 62.3 µM (active), the EC50 [12] was 4.21 µM (inconclusive) and the EC50 [13] was > 150 µM (inconclusive). For the same molecule, the EC50 [14] was 4.81 µM (active).
In the case of `CCOc1ccc(N2CC(C(=O)Nc3ccccc3C(=O)NC3CC3)CC2=O)cc1` (centres undefined), the EC50 [3] is reported as > 350 µM (not active) and the EC50 [5] is reported as > 350 µM (not active).
For `O=C(/C=C/c1cc2ccccc2o1)c1ccccc1O`, the AC50 [15] was 10.6 µM (active).
In the case of `Cc1ccc(Cn2c(SCc3cccnc3)nc3c2c(=O)n(C)c(=O)n3C)cc1`, the EC50 [6] is reported as > 120 µM (not active), the EC50 [7] is reported as > 120 µM (not active) and the EC50 [8] is reported as > 120 µM (not active).
For `O=C(N/N=C/c1ccccc1O)C1CC(=O)N(c2ccc(Cl)cc2)C1` (centres undefined), the EC50 [6] was 15.2 µM (active), the EC50 [7] was 24.1 µM (active) and the EC50 [8] was 7.99 µM (active). The AC50 [16] was 3.69 µM (active).
In the case of `Cn1cc(CN(CCO)Cc2cccs2)c(-c2cccc(Cl)c2)n1`, the EC50 [17] is reported as > 112 µM (not active), the EC50 [18] is reported as > 112 µM (not active) and the AC50 [19] is reported as 3.25 µM (active).
For `CCOc1ccc(CCNC(=O)COC(=O)Cn2nc(C)c([N+](=O)[O-])c2C)cc1OCC`, the EC50 [3] was > 350 µM (not active) and the EC50 [5] was > 350 µM (not active).
For `COC(=O)c1cc(S(=O)(=O)NCc2ccccc2OC)cn1C`, the EC50 [3] was > 350 µM (not active) and the EC50 [5] was > 350 µM (not active).
In the case of `O=[N+]([O-])c1cccc(C2NCC(c3ccccc3Cl)c3c2[nH]c2ccccc32)c1` (centres undefined), the AC50 [15] is reported as 2.69 µM (active).
With `COc1cc(OC)cc(C(=O)Nc2ccc(-c3nc4ccccc4o3)cc2)c1` the EC50 [20] was 1.06 µM (active), the EC50 [21] was > 16 µM (not active) and the IC50 [22] was > 79 µM (inactive).
With `O=C(/C=C/c1ccc(Cl)c([N+](=O)[O-])c1)Nc1cccc(NC(=O)c2ccco2)c1` the CC50 [23] was 21.2 µM (active) and the AC50 [15] was 2.56 µM (active).
With `COc1ccc(-c2csc(Cc3nnc(N4CCOCC4)n3-c3ccccc3)n2)cc1OC` the EC50 [6] was > 120 µM (not active), the EC50 [7] was > 120 µM (not active) and the EC50 [8] was 19.4 µM (active).
In the case of `CC(C)Sc1nc(N)c2c3c(sc2n1)CN(C)CC3`, the EC50 [3] is reported as > 350 µM (not active) and the EC50 [5] is reported as > 350 µM (not active).
For `CSc1nsc(SCc2ccc(Cl)cc2)n1`, the EC50 [11] was > 150 µM (not active), the EC50 [12] was > 150 µM (not active) and the EC50 [13] was > 150 µM (inconclusive). For the same molecule, the EC50 [14] was > 150 µM (not active).
In the case of `COc1cc(NC(=O)CSc2nc3ccccc3n2-c2ccccc2)c(C)cc1[N+](=O)[O-]`, the EC50 [11] is reported as > 150 µM (not active), the EC50 [12] is reported as > 150 µM (not active) and the EC50 [13] is reported as > 150 µM (inconclusive). For the same molecule, the EC50 [14] was > 150 µM (not active), the IC50 [24] was > 47.1 µM (inactive) and the EC50 [25] was > 53 µM (inactive).
With `O=C1NC(=O)C(=CNc2ccccc2[N+](=O)[O-])C(=O)N1` the EC50 [6] was > 120 µM (not active), the EC50 [7] was 20.7 µM (active) and the EC50 [8] was > 120 µM (not active).
For `Cc1ccc(-n2nc3c(=O)n(CCCC(=O)NCc4ccco4)nc(C)c3c2C)cc1`, the EC50 [6] was 17.1 µM (active), the EC50 [7] was 43 µM (active) and the EC50 [8] was > 120 µM (not active).
